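A five-concentration, 48-hour dose response in 96-well plates underlies each endpoint, interpolated linearly between surrounding concentrations. Here, GI50 denotes the concentration required for 50% inhibition of growth.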 Activity calls are given as the source filed them. Rule as the data show it: active = GI50 up to about 1.1 µM and inactive = higher.
How the values were obtained:
Experiment in all cases: NCI anticancer screen, dose series, 48 h
CCRF-CEM = tested on: CCRF-CEM
U-251 = tested on: U-251
SK-MEL-5 = tested on: SK-MEL-5
CAKI-1 = tested on: CAKI-1
LOX IMVI = tested on: LOX IMVI
UACC-257 = tested on: UACC-257
786-0 = tested on: 786-0
HOP-62 = tested on: HOP-62
M14 = tested on: M14
SNB-19 = tested on: SNB-19
UACC-62 = tested on: UACC-62
SN12C = tested on: SN12C
EKVX = tested on: EKVX
TK-10 = tested on: TK-10
SW-620 = tested on: SW-620
HOP-92 = tested on: HOP-92
SK-OV-3 = tested on: SK-OV-3
SK-MEL-2 = tested on: SK-MEL-2
HCC 2998 = tested on: HCC 2998

Measured: GI50

CCN(CC)c1ccc(/N=N/c2ccc(-c3nc4ccc[n+](C)c4o3)cc2)cc1
inactive: CCRF-CEM 3.27 µM | U-251 4.57 µM | SK-MEL-5 2.97 µM | CAKI-1 12.9 µM | LOX IMVI 4.3 µM | UACC-257 7.01 µM | 786-0 11.4 µM | HOP-62 16.3 µM | M14 12.1 µM | SNB-19 13.3 µM | UACC-62 9.27 µM | SN12C 15.5 µM | EKVX 13.6 µM | TK-10 12.3 µM | SW-620 4.76 µM | HOP-92 15.2 µM | SK-OV-3 19.5 µM | SK-MEL-2 12 µM

C(CCCCc1nnc(N2CCCCC2)o1)CCCc1nnc(N2CCCCC2)o1
inactive: CCRF-CEM > 100 µM | U-251 > 100 µM | SK-MEL-5 > 100 µM | CAKI-1 > 100 µM | LOX IMVI > 100 µM | UACC-257 > 100 µM | 786-0 > 100 µM | HOP-62 > 100 µM | M14 > 100 µM | SNB-19 > 100 µM | SN12C > 100 µM | EKVX > 100 µM | TK-10 > 100 µM | SW-620 > 100 µM | HOP-92 > 100 µM | HCC 2998 > 100 µM | SK-OV-3 > 100 µM | SK-MEL-2 > 100 µM

COc1ccc(/C=C2\CSC/C(=C\c3ccc(OC)c(OC)c3OC)C2=O)c(OC)c1OC
inactive: CCRF-CEM 12.9 µM | U-251 39.8 µM | SK-MEL-5 28.3 µM | LOX IMVI 23.4 µM | UACC-257 42.3 µM | 786-0 22.3 µM | HOP-62 60.8 µM | M14 18.5 µM | SNB-19 > 100 µM | UACC-62 14.9 µM | SN12C 24.2 µM | EKVX > 100 µM | TK-10 31.6 µM | SW-620 20.6 µM | HOP-92 35.6 µM | HCC 2998 > 10 µM | SK-OV-3 > 100 µM | SK-MEL-2 54.6 µM

O=c1c2cc(Cl)ccc2sc2cccc(Cl)c12
inactive: CCRF-CEM > 100 µM | U-251 > 100 µM | CAKI-1 > 100 µM | LOX IMVI > 100 µM | UACC-257 > 100 µM | 786-0 > 100 µM | HOP-62 > 100 µM | M14 > 100 µM | SNB-19 > 100 µM | UACC-62 > 100 µM | SN12C > 100 µM | EKVX > 100 µM | TK-10 > 100 µM | SW-620 > 100 µM | HOP-92 > 100 µM | SK-MEL-2 > 100 µM

O=C(Nc1c(Cl)cc([N+](=O)[O-])cc1Cl)C(=O)C(C(=O)c1ccncc1)C1OC(=O)c2ccccc21 (stereo not given)
inactive: CCRF-CEM > 100 µM | U-251 > 100 µM | CAKI-1 > 100 µM | LOX IMVI > 100 µM | UACC-257 > 100 µM | 786-0 > 100 µM | HOP-62 > 100 µM | M14 > 100 µM | SNB-19 > 100 µM | UACC-62 > 100 µM | SN12C > 100 µM | EKVX > 100 µM | TK-10 > 100 µM | SW-620 > 100 µM | HOP-92 > 100 µM | HCC 2998 > 100 µM | SK-OV-3 > 100 µM

CC1C(=O)N=C2C(=CN(Cc3ccccc3)c3ccccc32)C(=O)N1C (stereo not given)
inactive: CCRF-CEM > 100 µM | U-251 > 100 µM | SK-MEL-5 > 100 µM | CAKI-1 > 100 µM | UACC-257 > 100 µM | 786-0 > 100 µM | M14 > 100 µM | SNB-19 > 100 µM | UACC-62 > 100 µM | SN12C > 100 µM | TK-10 > 100 µM | SW-620 > 100 µM | HOP-92 > 100 µM | HCC 2998 > 100 µM | SK-MEL-2 > 100 µM

O=C(c1ccc(Cl)cc1)N(C(=S)N1CCN(c2ccccc2)CC1)C1CCCCC1
inactive: CCRF-CEM > 100 µM | U-251 > 100 µM | SK-MEL-5 > 100 µM | CAKI-1 > 100 µM | LOX IMVI 79.4 µM | UACC-257 91.2 µM | 786-0 > 100 µM | HOP-62 > 100 µM | M14 > 100 µM | SNB-19 > 100 µM | UACC-62 > 100 µM | SN12C > 100 µM | TK-10 > 100 µM | SW-620 > 100 µM | HOP-92 > 100 µM | SK-OV-3 > 100 µM | SK-MEL-2 > 100 µM

COc1ccc(NC(=O)C(=O)c2c(O)c3ccc(O)cc3oc2=O)c([N+](=O)[O-])c1
inactive: CCRF-CEM > 100 µM | SK-MEL-5 > 100 µM | CAKI-1 > 100 µM | LOX IMVI > 100 µM | UACC-257 > 100 µM | 786-0 > 100 µM | M14 > 100 µM | SNB-19 > 100 µM | UACC-62 > 100 µM | EKVX > 100 µM | TK-10 > 100 µM | SW-620 > 100 µM | HOP-92 > 100 µM | HCC 2998 > 100 µM | SK-OV-3 > 100 µM | SK-MEL-2 > 100 µM
